Values quoted from earlier work, collected in patent US20140371418A1, “BIOLOGICAL SYNTHESIS OF P-AMINOBENZOIC ACID, P-AMINOPHENOL, N-(4-HYDROXYPHENYL)ETHANAMIDE AND DERIVATIVES THEREOF” (pAromatics, LLC, priority 2012, published 2014).

## Nc1ccc(C(=O)O)cc1 [PABA, p-aminobenzoic acid]
other
  solubility of PABA in water: 0.072 M and about 10 g/L
Bacteria and fungi
  inhibition of growth of bacteria and fungi: inhibits growth
